US4939137A, “Ring-fused thienopyrimidinedione derivatives” (Ortho Pharmaceutical Corporation, priority 1989, dated 1990)

What was measured:
[1] = test system: alpha adrenergic receptor; experiment: Alpha-1 Adrenergic Blockage: Inhibition of Phenylephrine-Induced Increases in Blood Pressure in the Anesthetized Dog; assay type: in vivo; settings: dose 0.03 mpk, i.v., phenylephrine 10 μg/kg
Excerpt: Dogs were anesthetized and bilaterally vagotomized. A femoral artery and vein were cannulated for detection of diastolic blood pressure and drug administration, respectively. Percent inhibition of alpha adrenergic receptor antagonism was quantified by determining dose-response (increase in diastolic pressure) relationship of phenylephrine before and after various doses of the antagonist.

[2] = test system: spontaneously hypertensive rats (SHR); experiment: Antihypertensive Activity: Spontaneously Hypertensive Rat (SHR test); assay type: in vivo, rat (male spontaneously hypertensive); settings: Rattus norvegicus, p.o. or i.v., read-out: SHR TEST: change in blood pressure (delta % of control); for change in vivo at 5 mg/kg: dose 5 mpk
Description: Mean arterial pressure and heart rate were monitored from directly cannulated animals. Compounds were administered p.o. or i.v. and blood pressure was recorded for various time intervals post dosing.
Blood pressure changes (expressed as change in control pressure and reported as delta % of control for each animal) were analyzed statistically using a one way analysis of variance with a Dunnett's test. P values less than 0.05 were considered significant.

[3] = target: T1, 5HT1A receptor (Rattus norvegicus, UniProt P19327); experiment: Brain Serotonin 5HT1A Radioreceptor Assay (3H-80H-DPAT); assay type: binding; settings: rat frontal cortex membranes, 10 minutes, 37° C., read-out: RECEPTOR BINDING 5HT-1A (IC50)
T1 construct: Membrane fragments were prepared from the frontal cortex dissected from brains obtained from female rats; from tissue; host or cells: frontal cortex, female rats
T1 sequence (P19327 1-422): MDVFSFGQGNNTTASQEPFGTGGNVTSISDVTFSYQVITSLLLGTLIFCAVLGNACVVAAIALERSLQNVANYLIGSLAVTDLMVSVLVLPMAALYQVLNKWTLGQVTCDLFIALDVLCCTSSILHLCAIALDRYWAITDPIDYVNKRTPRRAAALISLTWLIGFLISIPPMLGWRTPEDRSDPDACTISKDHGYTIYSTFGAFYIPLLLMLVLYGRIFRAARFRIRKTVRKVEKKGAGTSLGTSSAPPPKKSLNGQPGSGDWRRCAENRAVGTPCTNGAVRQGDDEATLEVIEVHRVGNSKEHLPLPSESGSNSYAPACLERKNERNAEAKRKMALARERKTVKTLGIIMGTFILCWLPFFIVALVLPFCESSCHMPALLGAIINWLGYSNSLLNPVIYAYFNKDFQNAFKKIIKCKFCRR
Description: Membrane fragments were prepared from the frontal cortex dissected from brains obtained from female rats (~150 g). The 5HT1A sites were labeled with ^3 H-80H-dipropylaminotetralin (^3 H-80H-DPAT). Membrane fragments, ^3 H-80H-DPAT and an unlabeled test compound were incubated for 10 minutes at 37° C. The tubes were then placed in an ice bath for an additional 10 minutes. Compound bound to the receptor site was separated from the remaining unbound compound by vacuum filtration.
The ability of a nonlabeled compound to compete with ^3 H-80H-DPAT for binding sites was a measure of the compound's affinity for the 5HT1A receptor. Specific binding was determined by the difference between total counts bound and counts bound in the presence of 10^-5 M serotonin.
Data are presented at the IC50, the concentration of nonlabeled compound required to displace 50% of the ^3 H-80H-DPAT specifically bound to 5HT1A binding sites.

[4] = target: alpha-1 adrenergic receptor; experiment: Brain Alpha-1 Radioreceptor Assay (3H-prazosin); settings: guinea pig brain membranes, 30 minutes, 30° C., read-out: RECEPTOR BINDING ALPHA-1 (IC50)
Description: Membrane fragments were prepared from the brains of mature female guinea pigs after removal of the corpus striata. The alpha-1 adrenergic receptor sites were labeled with ^3 H-prazosin. Membrane fragments, ^3 H-prazosin and an unlabeled test compound were incubated for 30 minutes at 30° C. Compound bound to the receptor site was separated from the remaining unbound radioligand by vacuum filtration. Specific binding was determined by the difference between total counts bound and counts bound in the presence of 10-^5 M phentolamine.

[5] = target: T2, 5HT2 receptor (Rattus norvegicus, UniProt P14842); experiment: Brain Serotonin 5HT2 Radioreceptor Assay (3H-ketanserin); assay type: binding; settings: rat frontal cortex membranes, 15 minutes, 37° C., read-out: RECEPTOR BINDING 5HT-2 (IC50)
T2 construct: Membrane fragments were prepared from the frontal cortex dissected from brains obtained from female rats; from tissue; host or cells: frontal cortex, female rats
Description: Membrane fragments were prepared from the frontal cortex dissected from brains obtained from female rats (~150 g). The 5HT2 sites were labeled with ^3 H-ketanserin. Membrane fragments, ^3 H-ketanserin and an unlabeled test compound were incubated for 15 minutes at 37° C. Compound bound to the receptor site was separated from the remaining unbound compound by vacuum filtration.
The ability of a nonlabeled compound to compete with ^3 H-ketanserin for binding sites was a measure of the compound's affinity for the 5HT2 receptor. Specific binding was determined by the difference between total counts bound and counts bound in the presence of 10^-6 M methysergide.
Data are presented as the IC50, the concentration of nonlabeled compound required to displace 50% of the ^3 H-ketanserin specifically bound to 5HT2 binding sites.

T2 sequence (P14842 whole entry, the tested form may be a part): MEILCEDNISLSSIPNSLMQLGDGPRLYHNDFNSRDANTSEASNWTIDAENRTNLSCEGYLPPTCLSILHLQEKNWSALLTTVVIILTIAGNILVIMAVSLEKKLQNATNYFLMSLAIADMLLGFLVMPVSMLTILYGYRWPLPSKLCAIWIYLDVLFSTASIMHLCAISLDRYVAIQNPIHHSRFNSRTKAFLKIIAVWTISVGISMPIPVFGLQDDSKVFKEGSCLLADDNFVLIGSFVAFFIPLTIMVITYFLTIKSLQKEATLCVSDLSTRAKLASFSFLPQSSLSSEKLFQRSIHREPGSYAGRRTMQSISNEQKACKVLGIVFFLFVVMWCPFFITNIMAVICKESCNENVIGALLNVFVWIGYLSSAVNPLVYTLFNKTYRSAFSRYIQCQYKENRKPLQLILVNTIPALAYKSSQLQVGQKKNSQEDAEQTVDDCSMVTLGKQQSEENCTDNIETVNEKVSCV

Structure (SMILES): Cc1ccccc1N1CCN(CCn2c(=O)c3csc4c3n(c2=O)CCC4=O)CC1 [Example 2, 3,4,5,7,8,9-Hexahydro-4-[2-[4-(2-methylphenyl)piperazin-1-yl]ethyl]thieno[4,3,2-de]pyrido[1,2-c]pyrimidine-3,5,9-trione]
- % INHIB OF PHENYLEPHRINE RESPONSE [1]: 83%
- change in vivo at 5 mg/kg [2]: -33%

Structure (SMILES): O=C1CCn2c(=O)n(CCN3CCN(c4ccccc4Cl)CC3)c(=O)c3csc1c32 [Example 3, 4-[2-[4-(2-Chlorophenyl)piperazin-1-yl]ethyl]3,4,5,7,8,9-hexahydrothieno[4,3,2-de]pyrido[1,2-c]pyrimidine-3,5,9-trione]
- % INHIB OF PHENYLEPHRINE RESPONSE [1]: 55%

Structure (SMILES): O=C1CCn2c(=O)n(CCN3CCN(c4ccccc4)CC3)c(=O)c3csc1c32 [Example 4, 3,4,5,7,8,9-Hexahydro-4-[2-(4-phenylpiperazin-1-yl)ethyl]thieno[4,3,2-de]pyrido[1,2-c]pyrimidine-3,5,9-trione]
- % INHIB OF PHENYLEPHRINE RESPONSE [1]: 88%

Structure (SMILES): COc1cccc(N2CCN(CCn3c(=O)c4csc5c4n(c3=O)CCC5=O)CC2)c1 [Example 5, 3,4,5,7,8,9-Hexahydro-4-[2-[4-(3-methoxyphenyl)piperazin-1-yl]ethyl]thieno[4,3,2-de]pyrido[1,2-c]pyrimidine-3,5,9-trione]
- % INHIB OF PHENYLEPHRINE RESPONSE [1]: 41%

Structure (SMILES): COc1ccc(N2CCN(CCn3c(=O)c4csc5c4n(c3=O)CCC5=O)CC2)cc1 [Example 8, 3,4,5,7,8,9-Hexahydro-4-[2-[4-(4-methoxyphenyl)piperazin-1-yl]ethyl]thieno[4,3,2-de]pyrido[1,2-c]pyrimidine-3,5,9-trione]
- % INHIB OF PHENYLEPHRINE RESPONSE [1]: 40%

Structure (SMILES): O=C1CCn2c(=O)n(CCN3CCN(c4ccc(F)cc4)CC3)c(=O)c3csc1c32 [Example 9, 3,4,5,7,8,9-Hexahydro-4-[2-[4-(4-fluorophenyl)piperazin-1-yl]ethyl]thieno[4,3,2-de]pyrido[1,2-c]pyrimidine-3,5,9-trione]
- change in vivo at 5 mg/kg [2]: -21.5%

Structure (SMILES): COc1ccccc1N1CCN(CCn2c(=O)c3c(C)sc4c3n(c2=O)CCC4=O)CC1 [Example 13, 3,4,5,7,8,9-Hexahydro-2-methyl-4-[2-[4-(2-methoxyphenyl)piperazin-1-yl]ethyl]thieno[4,3,2-de]pyrido[1,2-c]pyrimidine-3,5,9-trione]
- % INHIB OF PHENYLEPHRINE RESPONSE [1]: 88%

Structure (SMILES): COc1ccccc1N1CCN(CCn2c(=O)c3scc4c3n(c2=O)CCC4=O)CC1 [Example 14, 7.8-Dihydro-4-[2-[4-(2-methoxyphenyl)-piperazin-1-yl]ethyl]thieno[2,3,4-de]pyrido[1,2-c]pyrimidine-3,5,9-trione]
- IC50 [3]: 66 nM
- IC50 [4]: 6 nM
- IC50 [5]: 1500 nM
- change in vivo at 5 mg/kg [2]: -30%

Structure (SMILES): COc1ccccc1N1CCN(CCn2c(=O)c3csc4c3n(c2=O)CCCC4=O)CC1 [Example 15, 4,7,8,9-Tetrahydro-4-[2-[4-(2-methoxyphenyl)-piperazin-1-yl]ethyl]thieno[4,3,2-de]pyrimido[3,4-a]azepine-3,5,10-trione]
- change in vivo at 5 mg/kg [2]: -29.8%

Structure (SMILES): COc1ccccc1N1CCN(CCn2c(=O)c3csc4c3n(c2=O)CCC4O)CC1 (centres unmarked) [Example 21, 3,4,5,7,8,9-Hexahydro-9-hydroxy-4-[2-[4-(2-methoxyphenyl)piperazin-1-yl]ethyl]thieno[4,3,2-de]pyrido[1,2-c]pyrimidine-3,5-dione]
- % INHIB OF PHENYLEPHRINE RESPONSE [1]: 96%
- change in vivo at 5 mg/kg [2]: -24.7%

Structure (SMILES): COc1ccccc1N1CCN(CCn2c(=O)c3c(C)sc4c3n(c2=O)CCC4O)CC1 (centres unmarked) [Example 23, 3,4,5,7,8,9-Hexahydro-9-hydroxy-4-[2-[4-(2-methoxyphenyl)piperazin-1-yl]ethyl]-2-methyl-thieno[4,3,2-de]pyrido[1,2-c]pyrimidine-3,5-dione]
- change in vivo at 5 mg/kg [2]: -27.4%

Structure (SMILES): CON=C1CCn2c(=O)n(CCN3CCN(c4ccccc4OC)CC3)c(=O)c3csc1c32 [Example 26, 3,4,5,7,8,9-Hexahydro-9-methoxyimino-4-[2-[4-(2-methoxyphenyl)piperazin-1-yl]ethyl]-thieno[4,3,2-de]pyrido[1,2-c]pyrimidine-3,5-dione]
- IC50 [3]: 0.72 nM
- IC50 [4]: 40 nM
- % INHIB OF PHENYLEPHRINE RESPONSE [1]: 72%
- IC50 [5]: 2000 nM

Structure (SMILES): COc1ccccc1N1CCN(CCn2c(=O)c3csc4c3n(c2=O)CCC4OC(C)=O)CC1 (centres unmarked) [Example 30, 9-Acetyloxy-3,4,5,7,8,9-hexahydro-4-[2-[4-(2-methoxyphenyl)piperazin-1-yl]ethyl]thieno[4,3,2-de]pyrido[1,2-c]pyrimidine-3,5-dione]
- % INHIB OF PHENYLEPHRINE RESPONSE [1]: 100%
- change in vivo at 5 mg/kg [2]: -33.2%

Structure (SMILES): CCCC(=O)OC1CCn2c(=O)n(CCN3CCN(c4ccccc4OC)CC3)c(=O)c3csc1c32 (centres unmarked) [Example 31]
- % INHIB OF PHENYLEPHRINE RESPONSE [1]: 100%

Structure (SMILES): CCCCCC(=O)OC1CCn2c(=O)n(CCN3CCN(c4ccccc4OC)CC3)c(=O)c3csc1c32 (centres unmarked) [Example 32, 3,4,5,7,8,9-Hexahydro-4-[2-[4-(2-methoxyphenyl)piperazin-1-yl]ethyl]-9-(hexanoyloxy)thieno[4,3,2-de]pyrido[1,2-c]pyrimidine-3,5-dione]
- % INHIB OF PHENYLEPHRINE RESPONSE [1]: 90%

Structure (SMILES): COc1ccccc1N1CCN(CCn2c(=O)c3csc4c3n(c2=O)CCC4OC(=O)C(C)C)CC1 (centres unmarked) [Example 33, 3,4,5,7,8,9-Hexahydro-9-(2-methylpropanoyloxy)-4-[2-[4-(2-methoxyphenyl)piperazin-1-yl]ethyl]thieno[4,3,2-de]pyrido[1,2-c]pyrimidine-3,5-dione]
- change in vivo at 5 mg/kg [2]: -32%

Structure (SMILES): COc1ccccc1N1CCN(CCn2c(=O)c3csc4c3n(c2=O)CCC4OC(=O)C(C)(C)C)CC1 (centres unmarked) [Example 34, 3,4,5,7,8,9-Hexahydro-4-[2-[4-(2-methoxyphenyl)piperazin-1-yl]ethyl]-9-[(2,2-dimethyl)propanoyloxy]thieno[4,3,2-de]pyrido[1,2-c]pyrimidine-3,5-dione]
- change in vivo at 5 mg/kg [2]: -26%

Structure (SMILES): COc1ccc(C(=O)OC2CCn3c(=O)n(CCN4CCN(c5ccccc5OC)CC4)c(=O)c4csc2c43)cc1 (centres unmarked) [Example 36, 3,4,5,7,8,9-Hexahydro-9-(4-methoxy)benzoyloxy-4-[2-[4-(2-methoxyphenyl)piperazin-1-yl]ethyl]thieno[4,3,2-de]pyrido[1,2-c]pyrimidine-3,5-dione]
- change in vivo at 5 mg/kg [2]: -14%

Structure (SMILES): COc1ccccc1N1CCN(CCn2c(=O)c3csc4c3n(c2=O)CCC4OC(=O)c2ccc(Cl)cc2)CC1 (centres unmarked) [Example 37, 9-(4-Chlorobenzoyloxy)-3,4,5,7,8,9-hexahydro-4-[2-[4-(2-methoxyphenyl)piperazin-1-yl]ethyl]thieno[4,3,2-de]pyrido[1,2-c]pyrimidine-3,5-dione]
- change in vivo at 5 mg/kg [2]: -30.2%

Structure (SMILES): COc1ccccc1N1CCN(CCn2c(=O)c3csc4c3n(c2=O)CCC4N)CC1 (centres unmarked) [Example 38, 9-Amino-3,4,5,7,8,9-hexahydro-4-[2-[4-(2-methoxyphenyl)piperazin-1-yl]ethyl]thieno[4,3,2-de]pyrido[1,2-c]pyrimidine-3,5-dione]
- IC50 [3]: 50 nM
- IC50 [4]: 10 nM
- IC50 [5]: 800 nM
- change in vivo at 2.5 mg/kg ([2]; dose 2.5 mpk): -30.1%
